Assay [1] concerns nematode. The assay can be described thus: Capsule field trial Location 2, nematode count. Format: in vivo. Conditions: 3.5 Kg/Ha granules. An excerpt:
(§1) Field trials for the gel capsules of Example I were established under commercial conditions in banana production areas of Central America. Bananas were transplanted using commercial procedures typical of the area. Gel capsules according to Example I were used as a post-plant treatment. A commercial standard was also included as a comparison in each test. Treatments and use rates for both field trials are included in the Tables 3 and 4 below. Location 1 included four replications for each treatment and location 2 included three replications.
(§2) Gel caps were applied in the area immediately surrounding the base of the banana plant. Holes were made to a depth of 15-20 cm using a rod inserted into the soil. Gel caps were applied into the holes by hand and soil was reapplied into the holes to cover the gel caps. Commercial standards were formulated as granules and applied around the base of the plant without incorporation.
Several parameters were measured at intervals following application of the pesticide. Plant height and plant trunk diameter were evaluated over time at intervals of approximately two, four and six weeks after application of the pesticide. Root weight, percent functional roots and nematode counts were taken at intervals of 45 and 60 days after application (DAA). Plant height and trunk diameter were evaluated as direct measurements and are recorded in units of centimeters. […]

Assay [2] concerns banana plant. The assay can be described thus: Capsule field trial Location 2, banana growth parameters. Format: in vivo. Conditions: 3.5 Kg/Ha granules.
Source text: as §1, §2
Several parameters were measured at intervals following application of the pesticide. Plant height and plant trunk diameter were evaluated over time at intervals of approximately two, four and six weeks after application of the pesticide. Root weight, percent functional roots and nematode counts were taken at intervals of 45 and 60 days after application (DAA). Plant height and trunk diameter were evaluated as direct measurements and are recorded in units of centimeters. Root weight, percent functional roots and nematode counts were obtained by separate soil samples which were taken and returned to the lab for analysis. Roots were separated from the soil and weighed. A separate, visual estimate was made to determine the percent of these roots that were healthy and functional. Nematode counts were made by extracting them from the roots and soil and then estimating the total by counting the actual number in subsamples of the extracted materials.

Molecules are shown by their SMILES.

With `CCOP(=O)(SC(C)CC)SC(C)CC` (stereo not drawn) [cadusaphos, cadusafos], the Nematode count is 11,200a in assay [1] (45 DAA) and 23,733a in assay [1] (60 DAA). Besides, the “Plant Height” value was found to be 143 cm in assay [2] (15 DAA), 156 cm in assay [2] (29 DAA) and 169 cm in assay [2] (43 DAA). The Stem diameter in assay [2] (15 DAA) turned out to be 30 cm; in assay [2] (29 DAA), 33 cm; in assay [2] (43 DAA) it was 36 cm. The “% Functional roots” value was determined as 82% in assay [2] (45 DAA) and 86% in assay [2] (60 DAA). Besides, the Root weight in assay [2] (45 DAA) came out at 44 gms; in assay [2] (60 DAA), 53 gms.
